In ChEMBL document CHEMBL1143167, “Monoaryl-substituted salicylaldoximes as ligands for estrogen receptor beta” (J Med Chem, 2008):

Legend:
[1] = biological target: Estrogen receptor beta (Homo sapiens) (UniProt Q92731); test: Displacement of [3H]estradiol from purified full length human ERbeta receptor relative to estradiol
[2] = biological target: T1, Estrogen receptor (Homo sapiens) (UniProt P03372); test: Displacement of [3H]estradiol from purified full length human ERalpha receptor relative to estradiol
T1 sequence (whole entry): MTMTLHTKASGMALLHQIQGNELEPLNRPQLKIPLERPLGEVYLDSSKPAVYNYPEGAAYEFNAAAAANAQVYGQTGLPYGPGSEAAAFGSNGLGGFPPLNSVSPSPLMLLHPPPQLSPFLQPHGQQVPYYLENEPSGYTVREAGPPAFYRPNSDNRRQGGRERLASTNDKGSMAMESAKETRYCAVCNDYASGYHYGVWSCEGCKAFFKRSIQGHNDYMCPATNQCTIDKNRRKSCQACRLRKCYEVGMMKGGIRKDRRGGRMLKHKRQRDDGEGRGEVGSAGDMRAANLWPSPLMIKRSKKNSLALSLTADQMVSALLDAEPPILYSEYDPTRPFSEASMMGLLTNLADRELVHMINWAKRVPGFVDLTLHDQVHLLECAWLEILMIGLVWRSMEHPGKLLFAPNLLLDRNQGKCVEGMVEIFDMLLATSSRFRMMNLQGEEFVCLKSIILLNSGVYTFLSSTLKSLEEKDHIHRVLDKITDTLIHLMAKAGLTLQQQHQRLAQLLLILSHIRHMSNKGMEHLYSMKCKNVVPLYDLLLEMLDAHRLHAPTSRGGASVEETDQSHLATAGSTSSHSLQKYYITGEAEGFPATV

Homo sapiens = species: Homo sapiens; test: Selectivity ratio of human ERbeta receptor over human ERalpha receptor

Chain of Estrogen receptor beta (Homo sapiens) (Q92731 whole entry): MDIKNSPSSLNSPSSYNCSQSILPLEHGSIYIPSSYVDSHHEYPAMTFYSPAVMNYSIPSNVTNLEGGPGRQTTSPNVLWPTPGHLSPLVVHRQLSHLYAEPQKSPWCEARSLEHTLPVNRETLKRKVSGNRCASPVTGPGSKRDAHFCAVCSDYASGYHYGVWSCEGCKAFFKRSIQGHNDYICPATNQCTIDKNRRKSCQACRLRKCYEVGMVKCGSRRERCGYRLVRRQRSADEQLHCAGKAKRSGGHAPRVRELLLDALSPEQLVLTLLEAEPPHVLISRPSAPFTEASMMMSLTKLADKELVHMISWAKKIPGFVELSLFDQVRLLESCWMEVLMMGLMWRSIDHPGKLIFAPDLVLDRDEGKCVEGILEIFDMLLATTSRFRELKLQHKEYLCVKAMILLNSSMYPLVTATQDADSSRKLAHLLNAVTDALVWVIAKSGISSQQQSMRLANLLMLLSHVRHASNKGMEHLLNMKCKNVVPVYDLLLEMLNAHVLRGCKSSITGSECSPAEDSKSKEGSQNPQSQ

Row | Structure (SMILES) | RBA [1] | RBA [2] | Ratio (Homo sapiens)
1 | N#Cc1c(-c2ccc(O)cc2)ccc(/C=N/O)c1O | 0.078% | 0.004% | 20
2 | COc1ccc(-c2ccc(/C=N/O)c(O)c2)cc1 | < 0.004% | 0.01% | 
3 | Cc1c(-c2ccc(O)cc2)ccc(/C=N/O)c1O | 4.1% | 0.249% | 16
4 | O/N=C/c1ccc(-c2ccccc2)cc1O | < 0.004% | < 0.004% | 
5 | COc1ccc(-c2ccc(/C=N/O)c(O)c2C)cc1 | 0.007% | 0.005% | 
6 | O/N=C/c1ccc(-c2ccc(O)cc2)cc1O | 0.553% | 0.007% | 79
